In patent US11535611B2, “Pyrazolo[3,4-B]pyridines and imidazo[1,5-B]pyridazines as PDE1 inhibitors” (H. Lundbeck A/S, priority 2017, dated 2022):

Assays:
Type in all cases: biochemical
PDE1A = PDE1A (Homo sapiens (Human), UniProt P54750); assay: PDE1 inhibition assay, PDE1A; conditions: @ 1 μM compound
Summary of the method: (§1)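 Scintillation proximity read-out (yttrium silicate beads, 1 h settling) quantified hydrolysis of 15 nM tritiated cAMP after a 1 h room-temperature reaction. The buffer was HEPES pH 7.6 with MgCl2, Tween20 and BSA, and enzyme was set to convert 20–25% of substrate. Activity was normalized to the uninhibited control (100%) to derive IC50.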

PDE1B = PDE1B (Homo sapiens (Human), UniProt Q01064); assay: PDE1 inhibition assay, PDE1B; conditions: 15 nM tritium labelled cAMP, 1 hr at room temperature, SPA beads; read-out: PDE1 B, IC50
Summary of the method: as §1

PDE1C = PDE1C (Homo sapiens (Human), UniProt Q14123); assay: PDE1 inhibition assay, PDE1C; conditions: @ 1 μM compound; read-out: PDE1 C, % inhibition @ 1 μM
Summary of the method: as §1

Chain of PDE1A (P54750 whole entry): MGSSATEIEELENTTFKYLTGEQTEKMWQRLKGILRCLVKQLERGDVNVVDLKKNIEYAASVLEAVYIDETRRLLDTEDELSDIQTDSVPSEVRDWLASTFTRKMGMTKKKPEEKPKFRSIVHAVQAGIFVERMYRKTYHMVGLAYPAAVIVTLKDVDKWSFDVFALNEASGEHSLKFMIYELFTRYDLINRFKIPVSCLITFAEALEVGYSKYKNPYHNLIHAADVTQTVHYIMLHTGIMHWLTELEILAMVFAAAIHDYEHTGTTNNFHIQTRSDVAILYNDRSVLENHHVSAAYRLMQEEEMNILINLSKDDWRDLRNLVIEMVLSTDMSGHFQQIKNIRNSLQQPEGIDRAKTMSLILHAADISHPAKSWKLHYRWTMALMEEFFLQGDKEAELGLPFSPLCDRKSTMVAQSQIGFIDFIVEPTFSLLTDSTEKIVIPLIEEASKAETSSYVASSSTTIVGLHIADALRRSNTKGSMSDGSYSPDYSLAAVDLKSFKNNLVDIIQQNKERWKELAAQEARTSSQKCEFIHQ
Chain of PDE1B (Q01064 whole entry): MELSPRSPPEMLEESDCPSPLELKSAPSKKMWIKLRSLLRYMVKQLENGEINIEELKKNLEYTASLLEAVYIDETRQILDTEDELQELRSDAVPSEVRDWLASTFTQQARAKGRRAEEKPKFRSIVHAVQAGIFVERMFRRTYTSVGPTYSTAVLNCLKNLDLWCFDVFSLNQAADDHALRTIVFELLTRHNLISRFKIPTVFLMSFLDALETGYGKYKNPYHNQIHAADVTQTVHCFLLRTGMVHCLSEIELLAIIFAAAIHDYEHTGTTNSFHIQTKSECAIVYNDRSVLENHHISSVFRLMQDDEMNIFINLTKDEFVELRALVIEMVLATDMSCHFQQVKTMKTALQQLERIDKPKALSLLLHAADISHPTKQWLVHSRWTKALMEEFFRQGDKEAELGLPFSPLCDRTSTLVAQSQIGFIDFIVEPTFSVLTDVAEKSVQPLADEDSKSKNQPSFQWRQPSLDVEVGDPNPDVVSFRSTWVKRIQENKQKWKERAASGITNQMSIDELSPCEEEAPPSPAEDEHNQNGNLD
Chain of PDE1C (Q14123 whole entry): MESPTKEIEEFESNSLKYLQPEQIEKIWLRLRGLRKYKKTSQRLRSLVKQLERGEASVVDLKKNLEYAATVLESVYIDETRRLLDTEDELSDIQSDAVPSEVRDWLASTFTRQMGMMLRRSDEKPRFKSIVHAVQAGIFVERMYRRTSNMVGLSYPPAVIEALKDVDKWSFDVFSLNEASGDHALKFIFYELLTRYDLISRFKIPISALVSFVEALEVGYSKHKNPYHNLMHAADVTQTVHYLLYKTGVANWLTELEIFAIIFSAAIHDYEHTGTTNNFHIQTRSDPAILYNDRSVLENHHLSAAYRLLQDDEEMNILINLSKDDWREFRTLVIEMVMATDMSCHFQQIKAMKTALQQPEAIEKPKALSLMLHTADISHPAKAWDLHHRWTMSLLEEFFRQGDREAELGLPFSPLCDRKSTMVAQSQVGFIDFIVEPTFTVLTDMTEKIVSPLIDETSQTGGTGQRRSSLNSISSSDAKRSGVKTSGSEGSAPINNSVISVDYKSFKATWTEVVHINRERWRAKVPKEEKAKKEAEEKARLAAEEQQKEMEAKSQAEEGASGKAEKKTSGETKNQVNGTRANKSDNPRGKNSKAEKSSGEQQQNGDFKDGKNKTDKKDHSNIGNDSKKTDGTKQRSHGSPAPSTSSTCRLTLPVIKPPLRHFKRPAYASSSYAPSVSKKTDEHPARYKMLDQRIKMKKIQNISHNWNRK

For `CCOc1ncccc1-c1cc(N2CC[C@@H](OC)C2)c2c(cnn2C)n1` [Example 85, 5-(2-ethoxy-3-pyridyl)-7-[(3R)-3-methoxypyrrolidin-1-yl]-1-methyl-pyrazolo[4,3-b]pyridine], the inhibition at 1 µM (PDE1A) was 23%, the IC50 (PDE1B) was 536 nM and the inhibition at 1 µM (PDE1C) was 56%.
In the case of `CCOc1ncccc1-c1cc(N[C@@H]2CCC[C@H]2OC)c2c(cnn2C)n1` [Example 86, 5-(2-ethoxy-3-pyridyl)-N-[(1R,2R)-2-methoxycyclopentyl]-1-methyl-pyrazolo[4,3-b]pyridin-7-amine], the inhibition at 1 µM (PDE1A) is reported as 22%, the IC50 (PDE1B) is reported as 536 nM and the inhibition at 1 µM (PDE1C) is reported as 20%.
`CCOc1ncccc1-c1cc(NC2CCC(OC)C2)c2c(cnn2C)n1` (stereo not drawn) [Example 88, 5-(2-ethoxy-3-pyridyl)-N-(3-methoxycyclopentyl)-1-methyl-pyrazolo[4,3-b]pyridin-7-amine] was tested, and the inhibition at 1 µM (PDE1A) was 16%, the IC50 (PDE1B) was 311 nM and the inhibition at 1 µM (PDE1C) was 47%.
